Several values for one entry are separate records, joined by “and”; a condition that tells them apart may be missing. Equal values may be shown once. Read-outs that look alike come from different tables or passages of the source.
How the values were obtained:
[1] = system: Mycobacteria; assay: Release of DNA from Mycobacteria by solvents, detergents, formic acid, borate; assay type: cell-based, Mycobacterium; details: solvents to strip waxy cell wall component
Description: The hardy cell wall of Mycobacterium consists of a thick, waxy, hydrophobic, mycolate layer and a peptidoglycan layer held together by polysaccharide. […] Similarly, various detergents (e.g., SDS), formic acid, and borate were tested at elevated temperatures.

[2] = system: Bacillus subtilis vegetative cells; assay: DNA release from B. subtilis by per-halogenated and oxidizing compounds, Acid-Hydrolysis HPLC Method; assay type: cell-based; details: 70° C. 20 minutes; for % DNA release / AUC, Ade: 15 mM compound in BD buffer, samples 1-3; for % DNA release (Average) / AUC, Ade (Average): 15 mM compound, average of 3
[3] = system: B. anthracis Sterne Strain spores; assay type: cell-based, Bacillus anthracis; details: Post-Periodate: BD2 buffer, 30 mM NPI, 70° C. 20 minutes, FIG. 15
[4] = system: C. botulinum Type B spores; assay type: cell-based, Clostridium botulinum; details: Post-Periodate: BD2 buffer, 30 mM NPI, 70° C. 20 minutes, FIG. 16
[5] = system: C. difficile spores; assay type: cell-based, Clostridium difficile
[6] = system: M. catarrhalis; assay type: cell-based, Moraxella catarrhalis; details: periodate +, BD2 buffer
[7] = system: K. pneumonia; assay type: cell-based, Klebsiella pneumonia; details: periodate +, BD2 buffer
[8] = system: P. aeruginosa; assay type: cell-based, Pseudomonas aeruginosa; details: periodate +, BD2 buffer
[9] = system: B. thuringiensis; assay type: cell-based, Bacillus thuringiensis; details: periodate +, BD2 buffer
[10] = system: Y. enterocolitica; assay type: cell-based, Yersinia enterocolitica; details: periodate +, BD2 buffer
[11] = system: S. aureus; assay type: cell-based, Staphylococcus aureus; details: periodate +, BD2 buffer
[12] = system: F. philomiragia; assay type: cell-based, Francisella philomiragia; details: periodate +, BD2 buffer
[13] = system: M. smegmatis; assay type: cell-based, Mycobacterium smegmatis; details: periodate +, BD2 buffer
[14] = system: F. philomiragia; assay type: cell-based, Francisella philomiragia; details: BD2 buffer
[15] = system: S. aureus; assay type: cell-based, Staphylococcus aureus; details: BD2 buffer
[16] = system: M. smegmatis; assay type: cell-based, Mycobacterium smegmatis; details: BD2 buffer
[17] = system: B. thuringiensis; assay type: cell-based, Bacillus thuringiensis; details: BD2 buffer
[18] = system: Y. enterocolitica; assay type: cell-based, Yersinia enterocolitica; details: BD2 buffer
[19] = system: C. albicans; assay type: cell-based, Candida albicans; details: BD2 buffer
[20] = system: M. catarrhalis; assay type: cell-based, Moraxella catarrhalis; details: BD2 buffer
[21] = system: K. pneumonia; assay type: cell-based, Klebsiella pneumonia; details: BD2 buffer
[22] = system: P. aeruginosa; assay type: cell-based, Pseudomonas aeruginosa; details: BD2 buffer
[23] = system: attenuated M. tuberculosis (aMTB) spiked in saliva; assay type: cell-based, Mycobacterium tuberculosis
[24] = system: M. tuberculosis in TB-positive sputum; assay: TB-positive sputum, qPCR targeting RD4 MTBC region of difference; assay type: cell-based, Mycobacterium tuberculosis
[25] = system: C. albicans; details: periodate +, BD2 buffer
[26] = system: Mycobacterium smegmatis lysate proteins; assay: M. smegmatis lysate treated with periodate, SDS-PAGE; details: 7.5 and 15 mM periodate, 70° C. 15 minutes, FIG. 13
[27] = target: Pancreatic Ribonuclease A (Bos taurus, UniProt P61823); assay: Pure pancreatic ribonuclease A treated with periodate, SDS-PAGE; details: 15 mM periodate, 70° C. 15 minutes, FIG. 12
Chain of Pancreatic Ribonuclease A (P61823 27-150): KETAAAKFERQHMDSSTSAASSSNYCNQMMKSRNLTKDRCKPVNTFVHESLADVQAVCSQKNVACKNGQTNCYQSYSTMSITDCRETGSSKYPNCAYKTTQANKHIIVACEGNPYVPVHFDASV

[28] = system: attenuated MTB H37Ra (aMTB) spiked in sputum; assay: DNA isolated from aMTB-spiked sputum using swabs and periodate, RD4 rtPCR
[29] = target: pancreatic ribonuclease A (RNase A) (Bos taurus, UniProt P61823); assay: Inhibition of RNase A by pre-treatment with periodate, HeLa RNA integrity on agarose gel; details: RNase A pre-incubated with 15 mM periodate, 70° C. 15 minutes, FIG. 14
Chain of pancreatic ribonuclease A (RNase A) (P61823 27-150): as above

[30] = system: Mycobacterium smegmatis; assay: NPI-mediated release of DNA from M. smegmatis as a function of pH, Acid-Extraction HPLC Method

In the case of C[S+](C)[O-] [DMSO], the “release of DNA” value [1] is reported as “no increased release of DNA was observed”.

For O.O.O.O.[Na+].[O-]B1OO1 [Perborate, sodium perborate tetrahydrate, reference compound], the “% DNA release” value [2] was 5.5% and 6.3% and 6.4%, the “AUC, Ade” value [2] was 70 and 80 and 82 and the “% DNA release (Average)” value [2] was 6.1%. The “AUC, Ade (Average)” value [2] was 77.3.

With [Na+].[O-][Cl+3]([O-])([O-])[O-] [Perchlorate, sodium perchlorate, reference compound] the “% DNA release” value [2] was 6.2% and 6.7% and 6.4%, the “AUC, Ade” value [2] was 79 and 85 and 81 and the “% DNA release (Average)” value [2] was 6.4%. For the same compound, the “AUC, Ade (Average)” value [2] was 81.7.

In the case of [O-][I+3]([O-])([O-])O [Periodate, sodium (meta)periodate], the “% DNA release” value [2] is reported as 46.6% and 48.0% and 37.4%, the “AUC, Ade” value [2] is reported as 594 and 611 and 476 and the “% DNA release (Average)” value [2] is reported as 44.0%. The “AUC, Ade (Average)” value [2] was 560.3, the “% DNA release (Average)” value ([2]; listed as sodium (meta)periodate) was 44% and the “spore viability by culture” value [3] was “dramatically reduced the viability”. For the same compound, the “spore viability by culture” value [4] was “no C. botulinum or C. difficile spores were viable by culture”, the “spore viability by culture” value [5] was “no C. botulinum or C. difficile spores were viable by culture” and the Ct values ([6]; 35° C. 20 minutes) was 16.3. The Ct values ([6]; 70° C. 20 minutes) was 12.7, the Ct values ([6]; 80° C. 20 minutes) was 10.8 and the Ct values ([7]; 35° C. 20 minutes) was 24.3. The Ct values ([7]; 70° C. 20 minutes) was 9.3, the Ct values ([7]; 80° C. 20 minutes) was 9.6 and the Ct values ([8]; 35° C. 20 minutes) was 10.8. It also gave a Ct values ([8]; 70° C. 20 minutes) of 7.8, a Ct values ([8]; 80° C. 20 minutes) of 8.8 and a Ct values ([9]; 35° C. 20 minutes) of 15.5. For the same compound, the Ct values ([9]; 70° C. 20 minutes) was 10.3, the Ct values ([9]; 80° C. 20 minutes) was 10.8 and the Ct values ([10]; 35° C. 20 minutes) was 15.5. The Ct values ([10]; 70° C. 20 minutes) was 12.0, the Ct values ([10]; 80° C. 20 minutes) was 11.4 and the Ct values ([11]; 35° C. 20 minutes) was 15.5. The Ct values ([11]; 70° C. 20 minutes) was 13.7, the Ct values ([11]; 80° C. 20 minutes) was 15.0 and the Ct values ([12]; 35° C. 20 minutes) was 15.3. It also gave a Ct values ([12]; 70° C. 20 minutes) of 15.5, a Ct values ([12]; 80° C. 20 minutes) of 16.0 and a Ct values ([13]; 35° C. 20 minutes) of 22.8. For the same compound, the Ct values ([13]; 70° C. 20 minutes) was 18.1, the Ct values ([13]; 80° C. 20 minutes) was 17.9 and the “% DNA Released” value ([14]; 35° C. 20 minutes) was 65.3%. For the same compound, the “% DNA Released” value ([14]; 70° C. 20 minutes) was 89.4%, the “% DNA Released” value ([14]; 80° C. 20 minutes) was 92.0% and the “% DNA Released” value ([15]; 35° C. 20 minutes) was 18.4%. For the same compound, the “% DNA Released” value ([15]; 70° C. 20 minutes) was 24.8%, the “% DNA Released” value ([15]; 80° C. 20 minutes) was 26.7% and the “% DNA Released” value ([16]; 35° C. 20 minutes) was 49.7%. For the same compound, the “% DNA Released” value ([16]; 70° C. 20 minutes) was 85.2%, the “% DNA Released” value ([16]; 80° C. 20 minutes) was 80.6% and the “% DNA Released” value ([17]; 35° C. 20 minutes) was 42.1%. The “% DNA Released” value ([17]; 70° C. 20 minutes) was 103.5%, the “% DNA Released” value ([17]; 80° C. 20 minutes) was 107.7% and the “% DNA Released” value ([18]; 35° C. 20 minutes) was 52.1%. The “% DNA Released” value ([18]; 70° C. 20 minutes) was 80.8%, the “% DNA Released” value ([18]; 80° C. 20 minutes) was 89.5% and the “% DNA Released” value ([19]; 35° C. 20 minutes) was 105.4%. For the same compound, the “% DNA Released” value ([19]; 70° C. 20 minutes) was 155.3%, the “% DNA Released” value ([19]; 80° C. 20 minutes) was 156.4% and the “% DNA Released” value ([20]; 35° C. 20 minutes) was 77.1%. The “% DNA Released” value ([20]; 70° C. 20 minutes) was 143.6%, the “% DNA Released” value ([20]; 80° C. 20 minutes) was 140.5% and the “% DNA Released” value ([21]; 35° C. 20 minutes) was 49.0%. For the same compound, the “% DNA Released” value ([21]; 70° C. 20 minutes) was 119.2%, the “% DNA Released” value ([21]; 80° C. 20 minutes) was 124.4% and the “% DNA Released” value ([22]; 35° C. 20 minutes) was 38.6%. For the same compound, the “% DNA Released” value ([22]; 70° C. 20 minutes) was 117.8%, the “% DNA Released” value ([22]; 80° C. 20 minutes) was 98.2% and the “Growth (up to 42 days)” value [23] was “NEG”. For the same compound, the “Time to Positive” value [23] was greater than 42 days, the “growth on LJ medium” value [23] was “no growth of any microorganism was observed” and the “Real-time PCR Ct value (in duplicate)” value [24] was 32/32 and 41/33 and 23/23 and 33/33 and 19/19 and 24/25. It also gave a Ct values ([25]; 35° C. 20 minutes) of 27.1, a Ct values ([25]; 70° C. 20 minutes) of 15.2 and a Ct values ([25]; 80° C. 20 minutes) of 15.7. For the same compound, the “protein bands in cell-free lysate” value [26] was “some protein bands selectively decreased or disappeared altogether”, the “quantity of full-length purified RNase protein” value [27] was “decreased” and the “Periodate efficiency (Ct Swab 6 (−) Ct average)” value (“Periodate efficiency” below) ([28]; 1:10 dilution of DNA, Copan) was 3.78. The “Periodate efficiency” value ([28]; 1:10 dilution of DNA, Puritan) was 5.72, the “Ct value (1:10 dilution of DNA) Copan, Average” value ([28]; (+) periodate) was 27.55 and the “Ct value (1:10 dilution of DNA) Puritan, Average” value ([28]; (+) periodate) was 27.11. For the same compound, the “Ct value (neat DNA) Copan, Average” value ([28]; (+) periodate) was 24.02, the “Ct value (neat DNA) Puritan, Average” value ([28]; (+) periodate) was 23.69 and the “Ct value (1:10 dilution of DNA) Copan” value ([28]; (+) periodate 30 mM, Swabs 1-5) was 26.49 and 28.11 and 29.12 and 33.99 and 26.47. The “Ct value (1:10 dilution of DNA) Puritan” value ([28]; (+) periodate 30 mM, Swabs 1-5) was 26.24 and 27.74 and 26.60 and 27.29 and 27.67, the “Ct value (neat DNA) Copan” value ([28]; (+) periodate 30 mM, Swabs 1-5) was 22.99 and 24.60 and 25.55 and 30 .09 and 22.93 and the “Ct value (neat DNA) Puritan” value ([28]; (+) periodate 30 mM, Swabs 1-5) was 22.67 and 24.19 and 23.28 and 23.93 and 24.36. The “Periodate efficiency” value ([28]; neat DNA, Copan) was 3.73, the “Periodate efficiency” value ([28]; neat DNA, Puritan) was 3.93 and the “increase in the amount of aMTB-specific DNA recovered per swab” value ([28]; periodate included vs not included) was greater than 10 fold. The “RNase A activity on HeLa ribosomal RNA” value [29] was “ribosomal RNA was no longer degraded by RNase A”, the “percentage of total DNA released” value ([30]; 6 mM NPI in PAB buffer solutions pH 3.7-9.4, 70° C. 20 minutes) was 37.4-59.4% and the “increase of percentage of total DNA released vs no NPI” value ([30]; 6 mM NPI, 70° C. 20 minutes) was “approximately 9 fold”.

With O=S(=O)([O-])OOS(=O)(=O)[O-].[Na+].[Na+] [Persulfate, sodium persulfate] the “% DNA release” value [2] was 15.9% and 14.7% and 14.3%, the “AUC, Ade” value [2] was 202 and 187 and 182 and the “% DNA release (Average)” value [2] was 15.0%. For the same compound, the “AUC, Ade (Average)” value [2] was 190.3 and the “% DNA release (Average)” value ([2]; listed as sodium persulfate) was 15%.
